≈ marks a conversion by molar mass, not a printed value. Calls of active or inactive are those of the source. No cut-off for these calls is given here.
What was measured:
[1] = test system: Rattus norvegicus; assay: Cmax in Wistar rat at 50 mg/kg, po; assay type: ADME, organism-based; design: dose 50 mg/kg, route oral; conditions: in vivo
[2] = test system: Rattus norvegicus; assay: Antiobesity activity in diet induced obese Sprague-Dawley rat model assessed as decrease in lean muscle at 50 mg/kg, po qd for 3 weeks measured on day 21 relative to vehicle treated control; assay type: functional, organism-based; design: dose 50 mg/kg
[3] = AUC in Wistar rat at 5 mg/kg, iv; assay type: ADME, organism-based; design: dose 5 mg/kg, route intravenous; conditions: plasma
[4] = test system: Rattus norvegicus; assay: Antiobesity activity in diet induced obese Sprague-Dawley rat model assessed as decrease in fat pad mass at 50 mg/kg, po qd for 3 weeks measured on day 21 relative to vehicle treated control; assay type: functional, organism-based; design: dose 50 mg/kg
[5] = Volume of distribution in Wistar rat at 5 mg/kg, iv; assay type: ADME, organism-based; design: dose 5 mg/kg, route intravenous; conditions: in vivo
[6] = AUC in Wistar rat at 50 mg/kg, po; assay type: ADME, organism-based; design: dose 50 mg/kg, route oral; conditions: plasma
[7] = Genotoxicity in micronucleus by micronucleus assay
[8] = test system: Rattus norvegicus; assay: Antiobesity activity in po dosed diet induced obese Sprague-Dawley rat model assessed as reduction in plasma triglycerides level administered qd for 3 weeks measured on day 21; assay type: functional, organism-based
[9] = test system: Rattus norvegicus; assay: Toxicity in diet induced obese Sprague-Dawley rat model assessed as change in liver weight administered orally after 22 days; assay type: organism-based; conditions: in vivo, po, 528 h
[10] = test system: Rattus norvegicus; assay: Antiobesity activity in po dosed diet induced obese Sprague-Dawley rat model assessed as reduction in weight gain administered qd for 3 weeks relative to vehicle treated control; assay type: functional, organism-based
[11] = species: Cavia porcellus; assay: Cardiotoxicity in guinea pig Langendorff heart model assessed as QT prolongation at >= 0.47 uM; assay type: toxicity
[12] = Tmax in Wistar rat at 50 mg/kg, po; assay type: ADME, organism-based; design: dose 50 mg/kg, route oral; conditions: in vivo
[13] = test system: Rattus norvegicus; assay: Antiobesity activity in diet induced obese Sprague-Dawley rat model assessed as reduction in weight gain at 25 mg/kg, po qd for 3 weeks measured on day 21 relative to vehicle treated control; assay type: functional; design: scale not given: the % may be the effect or the level left
[14] = test system: Rattus norvegicus; assay: Toxicity in diet induced obese Sprague-Dawley rat model assessed as change in liver enzyme activity administered orally after 22 days; assay type: organism-based; conditions: in vivo, po, 528 h
[15] = test system: Rattus norvegicus; assay: Cmax in diet induced obese Sprague-Dawley rat model at 50 mg/kg, po qd for 3 weeks measured on day 21; assay type: ADME, organism-based; design: dose 50 mg/kg, route oral; conditions: in vivo, 504 h
[16] = Half life in Wistar rat at 5 mg/kg, iv; assay type: ADME, organism-based; design: dose 5 mg/kg, route intravenous; conditions: in vivo
[17] = test system: Rattus norvegicus; assay: Toxicity in diet induced obese Sprague-Dawley rat model assessed as change in brain weight administered orally after 22 days; assay type: organism-based; conditions: in vivo, po, 528 h
[18] = Kinetic solubility of the compound in phosphate buffered saline at pH 6.5; assay type: physicochemical; conditions: read-out: Kinetic_solubility
[19] = test system: Rattus norvegicus; assay: Antiobesity activity in diet induced obese Sprague-Dawley rat model assessed as reduction in plasma triglycerides level at 50 mg/kg, po qd for 3 weeks measured on day 21 relative to vehicle treated control; assay type: functional; design: scale not given: the % may be the effect or the level left
[20] = test system: Salmonella typhimurium; assay: Mutagenic activity in Salmonella Typhimurium by Ames test; assay type: toxicity, organism-based; conditions: salmonella enterica subsp. enterica serovar typhimurium
[21] = test system: Rattus norvegicus; assay: Antiobesity activity in diet induced obese Sprague-Dawley rat model assessed as reduction in weight gain at 50 mg/kg, po qd for 3 weeks measured on day 21 relative to vehicle treated control; assay type: functional; design: scale not given: the % may be the effect or the level left
[22] = Cmax in diet induced obese Sprague-Dawley rat model at 25 mg/kg, po qd for 3 weeks measured on day 21; assay type: ADME, organism-based; design: dose 25 mg/kg, route oral; conditions: in vivo
[23] = Solubility of the compound in simulated gastric fluid; assay type: physicochemical
[24] = test system: Rattus norvegicus; assay: Antiobesity activity in diet induced obese Sprague-Dawley rat model assessed as reduction in plasma free fatty acid level at 50 mg/kg, po qd for 3 weeks measured on day 21; assay type: functional, organism-based; design: dose 50 mg/kg
[25] = target: T1, Diacylglycerol O-acyltransferase 1 (Rattus norvegicus, UniProt Q9ERM3); assay: Inhibition of rat DGAT1
T1 sequence (Q9ERM3 whole entry): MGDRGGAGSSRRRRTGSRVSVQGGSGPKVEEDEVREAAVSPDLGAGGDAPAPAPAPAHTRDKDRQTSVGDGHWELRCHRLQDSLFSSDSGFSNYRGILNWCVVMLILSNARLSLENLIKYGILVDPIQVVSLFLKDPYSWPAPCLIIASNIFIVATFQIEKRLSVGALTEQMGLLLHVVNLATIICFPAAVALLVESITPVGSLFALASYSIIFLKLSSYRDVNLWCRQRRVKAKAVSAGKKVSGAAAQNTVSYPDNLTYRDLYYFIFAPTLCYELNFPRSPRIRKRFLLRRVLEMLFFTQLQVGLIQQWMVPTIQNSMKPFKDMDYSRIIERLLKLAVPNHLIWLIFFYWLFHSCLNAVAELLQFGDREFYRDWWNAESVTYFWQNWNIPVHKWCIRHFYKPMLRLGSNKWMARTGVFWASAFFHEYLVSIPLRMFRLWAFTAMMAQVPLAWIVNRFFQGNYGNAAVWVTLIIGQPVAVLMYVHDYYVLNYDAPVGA

[26] = Oral bioavailability in Wistar rat at 50 mg/kg; assay type: ADME, organism-based; conditions: in vivo
[27] = test system: Rattus norvegicus; assay: Toxicity in diet induced obese Sprague-Dawley rat model assessed as change in kidney weight administered orally after 22 days; assay type: organism-based; conditions: in vivo, po, 528 h
[28] = test system: Rattus norvegicus; assay: Antiobesity activity in diet induced obese Sprague-Dawley rat model assessed as reduction in total cholesterol level at 50 mg/kg, po qd for 3 weeks measured on day 21; assay type: functional, organism-based; design: dose 50 mg/kg
[29] = Cmax in diet induced obese Sprague-Dawley rat model at 5 mg/kg, po qd for 3 weeks measured on day 21; assay type: ADME, organism-based; design: dose 5 mg/kg, route oral; conditions: in vivo
[30] = Fraction unbound in human serum; assay type: ADME, cell-free
[31] = test system: Rattus norvegicus; assay: Toxicity in diet induced obese Sprague-Dawley rat model assessed as change in heart weight administered orally after 22 days; assay type: organism-based; conditions: in vivo, po, 528 h
[32] = Solubility of the compound; assay type: physicochemical

COCCN(C)c1ccc(NC(=O)c2nc(-c3ccccc3)oc2C(F)(F)F)cn1
Cmax [1]: 10200 ng/mL | Activity [2]: inactive | AUC [3]: 6160 ng·h/mL | Activity [4]: Active | Vd [5]: 1.6 L/kg | AUC [6]: 47200 ng·h/mL | Activity [7]: Non-toxic | Activity [8]: Dose-dependent effect | Activity [9]: Non-toxic | Activity [10]: Dose-dependent effect | Activity [11]: Toxic | Tmax [12]: 1 h | Activity [13]: 4% | Activity [14]: Non-toxic | Cmax [15]: 12.2 µM | half-life [16]: 1.95 h | Activity [17]: Non-toxic | solubility kinetic [18]: 1 µg/mL (≈ 2.38 µM) | Activity [19]: 64% | Activity [20]: Non-toxic | Activity [21]: 8% | Cmax [22]: 7.8 µM | solubility [23]: 770 µg/mL (≈ 1830 µM) | Activity [24]: Active | IC50 [25]: 120 nM | bioavailability [26]: 77% | Activity [27]: Non-toxic | Activity [28]: Active | Cmax [29]: 2.6 µM | fraction unbound [30]: 0.015 | Activity [31]: Non-toxic

CCCn1[nH]c(=O)c2cc(NC(=O)c3nc(-c4ccccc4)oc3C(F)(F)F)ccc21
solubility [32]: Insoluble

Reference: ChEMBL document CHEMBL1921801, “Discovery and optimization of 2-phenyloxazole derivatives as diacylglycerol acyltransferase-1 inhibitors” (Bioorg Med Chem Lett, 2011)
